In patent US20220000860A1, “COMPOUNDS, COMPOSITIONS, AND METHODS FOR TREATING HUMAN IMMUNODEFICIENCY VIRUS” (OYAGEN, INC., priority 2017, published 2022):
Where two headings read alike, the source gives them in different places.

What was measured:
[1] = PBMC Acute Infection, cytotoxicity (CC50/CC90); type: cell-based; conditions: human
Procedure: (§1) PHA-stimulated cells from at least two normal donors were pooled (i.e. mixed together), diluted in fresh medium to a final concentration of 1×10^6 cells/mL, and plated in the interior wells of a 96-well round bottom microplate at 50 μL/well (5×10^4 cells/well). Pooling of mononuclear cells from more than one donor was used to minimize the variability observed between individual donors in quantitative and qualitative differences in HIV infection and overall response to the PHA and IL-2 of primary lymphocyte populations. Each plate contained virus control wells (cells plus virus) and experimental wells (drug plus cells plus virus) of either 00KE_KER2008 (Subtype A), IIIB (Subtype B), or 98US_MSC5016 (Subtype C). Test drug dilutions were prepared at a 2×concentration and 100 μL of each concentration was placed in appropriate wells. Fifty μL of a predetermined dilution of virus stock was placed in each test well (final MOI≅0.1). After this period, cell-free supernatant samples were collected for analysis of reverse transcriptase (RT) activity with an RT assay. […] In the Table below SI50=CC50/EC50 and SI90=CC90/EC90.

[2] = test system: Vif-dependent APOBEC3G degradation; assay: Vif-Dependent APOBEC3G Degradation Assay; type: cell-based, HIV
Procedure: APOBEC3G-V5-mCherry was stably expressed from the pIRES-P vector in 293T cells under puromycin selection. Fifty ng of plasmid expressing Vif-HA (accession no. AB573087) was transfected into the cells in 384-well format with Turbofect on a liquid handling robot. Four hours after transfection the compounds were added to cells in a range from 0-15 μM. Twenty-four hours after compound addition mCherry fluorescence was read on a BioTek Synergy4 plate reader (ex=587 nm, em=610 nm). Relative fluorescence units (RFU) from compound treated wells were quantified using thresholds set by the −Vif (positive control) and +Vif (negative control).

[3] = target: T1, topoisomerase I (TOP1) (Homo sapiens, UniProt P11387); assay: topoisomerase I inhibition
T1 sequence (P11387 1-765): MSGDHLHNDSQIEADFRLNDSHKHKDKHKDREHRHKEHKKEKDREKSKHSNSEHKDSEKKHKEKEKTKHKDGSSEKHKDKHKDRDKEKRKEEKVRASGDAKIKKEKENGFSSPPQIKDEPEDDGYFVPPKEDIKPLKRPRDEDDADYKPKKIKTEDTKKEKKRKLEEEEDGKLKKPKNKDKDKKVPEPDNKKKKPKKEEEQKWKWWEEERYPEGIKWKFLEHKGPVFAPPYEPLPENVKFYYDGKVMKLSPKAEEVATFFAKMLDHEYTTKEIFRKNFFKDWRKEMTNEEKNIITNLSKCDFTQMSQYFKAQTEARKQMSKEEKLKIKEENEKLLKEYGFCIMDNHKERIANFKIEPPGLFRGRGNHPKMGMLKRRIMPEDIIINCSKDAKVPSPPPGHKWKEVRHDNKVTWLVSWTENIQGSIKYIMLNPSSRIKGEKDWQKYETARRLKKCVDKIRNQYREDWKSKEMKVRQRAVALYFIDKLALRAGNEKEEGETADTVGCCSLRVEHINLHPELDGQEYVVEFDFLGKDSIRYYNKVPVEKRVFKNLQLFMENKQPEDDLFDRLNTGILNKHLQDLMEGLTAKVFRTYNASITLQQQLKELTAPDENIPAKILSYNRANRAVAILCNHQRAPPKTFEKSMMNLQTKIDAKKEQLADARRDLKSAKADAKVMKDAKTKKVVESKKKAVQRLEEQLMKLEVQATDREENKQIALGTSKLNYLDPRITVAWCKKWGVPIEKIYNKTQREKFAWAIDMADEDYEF

[4] = test system: 98US_MSC5016 (Subtype C); assay: PBMC Acute Infection, 98US_MSC5016; type: cell-based, HIV; conditions: Human immunodeficiency virus 1, PBMC, isolate 98US_MSC5016, subtype C, RT activity readout; for EC50: read-out: EC50; for EC90: read-out: EC90
Procedure: as §1

[5] = test system: IIIB (Subtype B); assay: PBMC Acute Infection, IIIB; type: cell-based, HIV; conditions: Human immunodeficiency virus 1, isolate IIIB, subtype B, RT activity readout; for EC50: read-out: EC50; for EC90: read-out: EC90
Procedure: as §1

[6] = row of isolate 00KE-KER2008, subtype A
[7] = Human immunodeficiency virus 1, HEK-293T, 24 h, read-out: EC50, A3G Degradation Assay
[8] = Human immunodeficiency virus 1, read-out: A3G degradation at
[9] = PHA-stimulated PBMCs pooled from at least two normal donors, row of isolate 00KE-KER2008, subtype A

Row | Compound | CC50 [1, 6] [nM] | CC90 [1, 6] [nM] | CC50 ([1]; row of isolate 98US_MSC5016, subtype C) [nM] | CC50 ([1]; row of isolate IIIB, subtype B) [nM] | Vif-dependent A3G degradation (result in words) [2] | EC50 [2, 7] [nM] | EC50 [2, 8] [nM] | inhibition of topoisomerase I (TOP1) (result in words) [3] | EC50 [4] [nM] | EC90 [4] [nM] | EC50 [5] [nM] | EC90 [5] [nM] | CC50 [1, 9] [nM] | CC90 [1, 9] [nM] | CC50 ([1]; PHA-stimulated PBMCs pooled from at least two normal donors, row of isolate 98US_MSC5016, subtype C) [nM] | CC50 ([1]; PHA-stimulated PBMCs pooled from at least two normal donors, row of isolate IIIB, subtype B) [nM]
1 | CCc1c2c(nc3ccc(O)cc13)-c1cc3c(c(=O)n1C2)CNC(=O)[C@]3(O)CC [SN38-L, (S)-4,11-Diethyl-4,9-dihydroxy-1,2-dihydroquinolino[2′,3′:3,4]pyrrolo[1,2-b][2,7]naphthyridine-3,14(4H,12H)-dione] | 1180 | 27900 | 1180 | 5790 | block | 84 | 99 | do not inhibit | 4 | 16 | 10 | 28 | – | – | – | –
2 | CCc1c2c(nc3ccc(N)cc13)-c1cc3c(c(=O)n1C2)CNC(=O)[C@]3(O)CC [Compound O5-SN, (S)-9-Amino-4,11-diethyl-4-hydroxy-1,2-dihydroquinolino[2′,3′:3,4]pyrrolo[1,2-b][2,7]naphthyridine-3,14(4H,12H)-dione] | – | – | – | – | block | 99 | 84 | do not inhibit | 6 | 20 | 8 | 25 | 2530 | > 100000 | 2530 | 6290
